Data taken from ChEMBL document CHEMBL1201862, “PubChem BioAssay data set” (2004).
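Where inhibition never reached the appropriate level, the endpoint shown equals the highest concentration tested. Otherwise, values were interpolated linearly from a five-concentration, 48-hour dose response in 96-well plates. Abbreviation: GI50, concentration required for 50% inhibition of growth.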 Active and inactive are the calls of the source. No stated cut-off is given here; in the data, active = GI50 up to about 1.1 µM and inactive = higher.

What was measured:
Test in all cases: NCI-60 cell line screen, 48 h
HOP-18 = system: HOP-18
HT-29 = system: HT-29
DMS-114 = system: DMS-114
LOX IMVI = system: LOX IMVI
NCI-H226 = system: NCI-H226
SK-OV-3 = system: SK-OV-3
SW-620 = system: SW-620
M19-MEL = system: M19-MEL
SN12C = system: SN12C
UACC-62 = system: UACC-62
ACHN = system: ACHN
SNB-75 = system: SNB-75
SK-MEL-5 = system: SK-MEL-5
COLO 205 = system: COLO 205
DMS-273 = system: DMS-273
TK-10 = system: TK-10
SK-MEL-2 = system: SK-MEL-2
SK-MEL-28 = system: SK-MEL-28
OVCAR-3 = system: OVCAR-3
HOP-62 = system: HOP-62
RPMI-8226 = system: RPMI-8226
786-0 = system: 786-0
NCI-H460 = system: NCI-H460
A549 = system: A549
U-251 = system: U-251
CCRF-CEM = system: CCRF-CEM
RXF 393 = system: RXF 393
OVCAR-8 = system: OVCAR-8
HCT-15 = system: HCT-15
SF-539 = system: SF-539
KM12 = system: KM12
SF-295 = system: SF-295
NCI-H23 = system: NCI-H23
EKVX = system: EKVX
DLD-1 = system: DLD-1
UACC-257 = system: UACC-257
M14 = system: M14
UO-31 = system: UO-31
IGROV-1 = system: IGROV-1
HL-60 = system: HL-60
HCT-116 = system: HCT-116
Malme-3M = system: Malme-3M
NCI-H522 = system: NCI-H522
MOLT-4 = system: MOLT-4
SNB-19 = system: SNB-19
K562 = system: K562
MCF7 = system: MCF7
XF498 = system: XF498
CAKI-1 = system: CAKI-1
A498 = system: A498
SF-268 = system: SF-268
KM-20L2 = system: KM-20L2
HOP-92 = system: HOP-92
HCC 2998 = system: HCC 2998
OVCAR-4 = system: OVCAR-4
NCI/ADR-RES = system: NCI/ADR-RES
SNB-78 = system: SNB-78
OVCAR-5 = system: OVCAR-5

Measured: GI50

Cc1ccc2c(c1)C1(C)OC(CC(N)C1O)O2 (stereo unspecified)
inactive: HOP-18 > 100 µM | HT-29 > 100 µM | DMS-114 > 100 µM | LOX IMVI > 100 µM | NCI-H226 > 100 µM | SK-OV-3 > 100 µM | SW-620 > 100 µM | M19-MEL > 100 µM | SN12C > 100 µM | UACC-62 > 100 µM | ACHN > 100 µM | SNB-75 29.8 µM | SK-MEL-5 > 100 µM | COLO 205 > 100 µM | DMS-273 > 100 µM | TK-10 > 100 µM | SK-MEL-2 > 100 µM | SK-MEL-28 > 100 µM | OVCAR-3 > 100 µM | HOP-62 > 100 µM | RPMI-8226 > 100 µM | 786-0 > 100 µM | NCI-H460 > 100 µM | A549 > 100 µM | U-251 > 100 µM | CCRF-CEM > 100 µM | RXF 393 > 100 µM | OVCAR-8 > 100 µM | SF-539 > 100 µM | KM12 > 100 µM | SF-295 > 100 µM | NCI-H23 > 100 µM | EKVX > 100 µM | DLD-1 > 100 µM | UACC-257 > 100 µM | M14 > 100 µM | UO-31 > 100 µM | IGROV-1 > 100 µM | HL-60 > 100 µM | HCT-116 > 100 µM | Malme-3M > 100 µM | NCI-H522 > 100 µM | MOLT-4 > 100 µM | SNB-19 > 100 µM | K562 > 100 µM
> 100 µM: HCT-15

O=NN(CCCl)C(=O)Nc1ccc(Cl)c(Cl)c1
active: HOP-62 0.546 µM
inactive: HT-29 76.6 µM | DMS-114 6.67 µM | LOX IMVI 78.5 µM | MCF7 38.5 µM | NCI-H226 46.6 µM | SK-OV-3 > 94.8 µM | SW-620 > 100 µM | M19-MEL 69.5 µM | SN12C > 100 µM | UACC-62 45.9 µM | XF498 72.8 µM | CAKI-1 81.1 µM | A498 > 83.8 µM | SF-268 31.6 µM | SNB-75 > 100 µM | SK-MEL-5 71.6 µM | COLO 205 > 100 µM | DMS-273 72.8 µM | KM-20L2 25.3 µM | HOP-92 > 77.8 µM | HCC 2998 > 60.7 µM | SK-MEL-2 > 82.2 µM | OVCAR-4 61.1 µM | SK-MEL-28 > 100 µM | OVCAR-3 41.9 µM | RPMI-8226 50 µM | NCI-H460 56.8 µM | A549 > 100 µM | U-251 52 µM | CCRF-CEM 59.8 µM | RXF 393 > 100 µM | OVCAR-8 71.6 µM | SF-539 > 91.2 µM | KM12 > 77.3 µM | NCI/ADR-RES 48.4 µM | SF-295 48.5 µM | SNB-78 > 56.9 µM | NCI-H23 > 69.7 µM | EKVX 46.9 µM | DLD-1 53.5 µM | UACC-257 > 100 µM | UO-31 45.7 µM | IGROV-1 > 56.5 µM | OVCAR-5 > 67.9 µM | HL-60 > 100 µM | HCT-116 > 100 µM | Malme-3M > 100 µM | NCI-H522 28.3 µM | MOLT-4 > 100 µM | SNB-19 > 63 µM | K562 36.9 µM
> 71.6 µM: HCT-15

CC(=O)Oc1c2c(c(O)c3ccccc13)C(n1cnc3c(ncn3C3OC(CO)C4OC(C)(C)OC43)c1=N)CCC2 (stereo unspecified)
inactive: HOP-18 20.3 µM | HT-29 13.2 µM | DMS-114 6.44 µM | LOX IMVI 4.81 µM | NCI-H226 23.3 µM | SK-OV-3 19 µM | SW-620 15.3 µM | M19-MEL 11.6 µM | SN12C 18.1 µM | UACC-62 13.9 µM | ACHN 16.5 µM | CAKI-1 25.4 µM | A498 17.3 µM | SF-268 16.4 µM | SNB-75 17.5 µM | SK-MEL-5 12.1 µM | COLO 205 16.9 µM | DMS-273 18.1 µM | KM-20L2 21.6 µM | HOP-92 22.6 µM | TK-10 21.5 µM | HCC 2998 15 µM | SK-MEL-2 15.4 µM | SK-MEL-28 17.5 µM | OVCAR-3 14.5 µM | HOP-62 16.7 µM | RPMI-8226 3.1 µM | 786-0 14.5 µM | NCI-H460 23.3 µM | A549 19.1 µM | U-251 18.9 µM | CCRF-CEM 5.24 µM | RXF 393 18.3 µM | OVCAR-8 11.2 µM | SF-539 18.2 µM | KM12 14.4 µM | SF-295 13.9 µM | SNB-78 23 µM | NCI-H23 16.8 µM | EKVX 22.2 µM | DLD-1 13.1 µM | UACC-257 10.2 µM | UO-31 16.2 µM | IGROV-1 20.2 µM | OVCAR-5 21.2 µM | HL-60 4.49 µM | Malme-3M 11.2 µM | NCI-H522 5.87 µM | MOLT-4 11.1 µM | SNB-19 16 µM | K562 6.84 µM
14.8 µM: HCT-15
